Measurements published in PMC8624133, “10th Trends in Medical Mycology Held on 8 to 11 October 2021, Aberdeen, Scotland, Organized by the European Confederation of Medical Mycology (ECMM)” (Journal of Fungi, 2021).
No end group written: not given here.

Legend:
Experiment in all cases: Broth microdilution of modified HDPs
Settings in all cases: 0.19 to 50 μg/mL tested
[1] = tested on: C. krusei ATCC 6558; format: cell-based, Candida krusei
Text: (§1) Materials & Methods: From the Scarabaeidae family transcriptome, 14 promising HDPs were identified. Subsequently, we designed new sequences modifying the net charge, hydrophobic angle and the general composition of amino acids, among other properties, in order to improve the HDPs antifungal activity. The in vitro antifungal susceptibility of the 14 modified HDPs against Candida krusei, ATCC 6558, Candida parapsilosis ATCC 22019, Candida glabrata ATCC 2001, Candida tropicalis ATCC 750, Cryptococcus neoformans H99 and Cryptococcus gattii H0058-I-2029 isolates were evaluated by broth microdilution, with a concentration ranging from 0.19 to 50 μg/mL for all peptides.

[2] = tested on: C. parapsilosis ATCC 22019; format: cell-based, Candida parapsilosis
Text: as §1

[3] = tested on: C. albicans SC5314; format: cell-based, Candida albicans
[4] = tested on: C. tropicalis ATCC 750; format: cell-based, Candida tropicalis
Text: as §1

[5] = tested on: C. albicans ATCC 1453; format: cell-based, Candida albicans
[6] = tested on: C. glabrata ATCC 2001; format: cell-based, Candida glabrata
Text: as §1

[7] = tested on: C. neoformans H99; format: cell-based, Cryptococcus neoformans
Text: as §1

[8] = tested on: C. gattii H0058-I-2029; format: cell-based, Cryptococcus gattii
Text: as §1

GSKRWRKFEKRVKKIFEETKEALPVVQGVAGVAGAVGRR-NH2 [ConCec]
MIC [1]: 0.78 µg/mL
MIC [2]: 0.39 µg/mL
MIC [3]: >50 µg/mL
MIC [4]: 25 µg/mL
MIC [5]: >50 µg/mL
MIC [6]: 1.56 µg/mL
MIC [7]: 25 µg/mL
MIC [8]: 1.56 µg/mL

GSKRWRKFEKRVKKIFEHTKEA-NH2 [Act7]
MIC [1]: 0.78 µg/mL
MIC [2]: 1.56 µg/mL
MIC [3]: >50 µg/mL
MIC [4]: >50 µg/mL
MIC [5]: >50 µg/mL
MIC [6]: 3.12 µg/mL
MIC [7]: 50 µg/mL
MIC [8]: 3.12 µg/mL

GSKRWRKFEKRVKKIFEHTKEAK-NH2 [Act8]
MIC [1]: 0.78 µg/mL
MIC [2]: 1.56 µg/mL
MIC [3]: >50 µg/mL
MIC [4]: >50 µg/mL
MIC [5]: >50 µg/mL
MIC [6]: 3.12 µg/mL
MIC [7]: 50 µg/mL
MIC [8]: 3.12 µg/mL

GSKRWRKFEKRVKKIFEKTKEA-NH2 [Act5]
MIC [1]: 1.56 µg/mL
MIC [2]: 3.12 µg/mL
MIC [3]: 25 to 50 µg/mL
MIC [4]: >50 µg/mL
MIC [5]: >50 µg/mL
MIC [6]: 3.12 µg/mL
MIC [7]: 25 µg/mL
MIC [8]: 1.56 µg/mL

GSKRWRKFEKRVKKIFEKTKEAK-NH2 [Act6]
MIC [1]: 0.78 µg/mL
MIC [2]: 1.56 µg/mL
MIC [3]: >50 µg/mL
MIC [4]: >50 µg/mL
MIC [5]: >50 µg/mL
MIC [6]: 3.12 µg/mL
MIC [7]: 50 µg/mL
MIC [8]: 3.12 µg/mL

GSKRWRKFEKRVKKVFEHTKEA-NH2 [ox322]
MIC [1]: 1.56 µg/mL
MIC [2]: 1.56 µg/mL
MIC [3]: >50 µg/mL
MIC [4]: >50 µg/mL
MIC [5]: >50 µg/mL
MIC [6]: 3.12 µg/mL
MIC [7]: 50 µg/mL
MIC [8]: 3.12 µg/mL

KSKRWRKFEKRVKKIFEHTKEA-NH2 [Act3]
MIC [1]: 0.78 µg/mL
MIC [2]: 3.12 µg/mL
MIC [3]: >50 µg/mL
MIC [4]: >50 µg/mL
MIC [5]: >50 µg/mL
MIC [6]: 1.56 µg/mL
MIC [7]: 50 µg/mL
MIC [8]: 3.12 µg/mL

KSKRWRKFEKRVKKIFEHTKEAK-NH2 [Act4]
MIC [1]: 0.78 µg/mL
MIC [2]: 1.56 µg/mL
MIC [3]: >50 µg/mL
MIC [4]: 50 µg/mL
MIC [5]: >50 µg/mL
MIC [6]: 3.12 µg/mL
MIC [7]: 50 µg/mL
MIC [8]: 1.56 µg/mL

KSKRWRKFEKRVKKIFEKFKEAK-NH2 [Act2.2]
MIC [1]: 0.78 µg/mL
MIC [2]: 1.56 µg/mL
MIC [3]: >50 µg/mL
MIC [4]: 12.5 µg/mL
MIC [5]: >50 µg/mL
MIC [6]: 1.56 µg/mL
MIC [7]: 12.5 µg/mL
MIC [8]: 1.56 µg/mL

KSKRWRKFEKRVKKIFEKTKEA-NH2 [Act1]
MIC [1]: 1.56 µg/mL
MIC [2]: 3.12 µg/mL
MIC [3]: >50 µg/mL
MIC [4]: 50 µg/mL
MIC [5]: >50 µg/mL
MIC [6]: 3.12 µg/mL
MIC [7]: 50 µg/mL
MIC [8]: 6.25 µg/mL

KSKRWRKFEKRVKKIFEKTKEAK-NH2 [Act2]
MIC [1]: 0.78 µg/mL
MIC [2]: 1.56 µg/mL
MIC [3]: >50 µg/mL
MIC [4]: 50 µg/mL
MIC [5]: >50 µg/mL
MIC [6]: 1.56 µg/mL
MIC [7]: 25 µg/mL
MIC [8]: 3.12 µg/mL

RSKKWRKIEKRVKKIFEKTKEA-NH2 [sat122]
MIC [1]: 1.56 µg/mL
MIC [2]: 0.39 µg/mL
MIC [3]: >50 µg/mL
MIC [4]: 50 µg/mL
MIC [5]: >50 µg/mL
MIC [6]: 3.12 µg/mL
MIC [7]: 50 µg/mL
MIC [8]: 3.12 µg/mL
